Measurements reported in patent US8710044B2, “Bicyclic azaheterocyclic carboxamides” (Merck Patent GmbH, priority 2010, dated 2014).
pIC50: −log10 of the molar value.

The compounds below were run against T1, P70S6K (T412E mutant, Millipore) (Homo sapiens, UniProt P23443, T412E) (assay: P70S6K Enzyme Assay). Details: 3 nM enzyme, 24 μM ATP, 1 μM FITC-AHA-[…]-OH substrate peptide, 90 min at 25° C., Caliper Lab Chip 3000.
T1 construct: purchased Millipore
T1 sequence (P23443 whole entry T412E): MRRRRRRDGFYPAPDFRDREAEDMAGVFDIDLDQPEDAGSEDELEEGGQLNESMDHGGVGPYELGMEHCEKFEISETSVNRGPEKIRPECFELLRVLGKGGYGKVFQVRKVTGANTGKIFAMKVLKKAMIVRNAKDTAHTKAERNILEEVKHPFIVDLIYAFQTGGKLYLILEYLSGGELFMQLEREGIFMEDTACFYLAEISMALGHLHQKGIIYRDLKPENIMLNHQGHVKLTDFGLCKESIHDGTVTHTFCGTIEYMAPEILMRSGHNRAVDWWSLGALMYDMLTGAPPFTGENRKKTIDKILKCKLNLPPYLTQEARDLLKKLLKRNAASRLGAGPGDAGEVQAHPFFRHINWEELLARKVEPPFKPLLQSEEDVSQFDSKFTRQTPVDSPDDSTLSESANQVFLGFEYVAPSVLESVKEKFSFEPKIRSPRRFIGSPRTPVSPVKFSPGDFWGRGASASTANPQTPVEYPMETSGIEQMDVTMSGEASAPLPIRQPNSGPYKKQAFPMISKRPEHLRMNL
Assay type: biochemical
Protocol: P70S6K inhibitor compounds are diluted and plated in 96 well plates. […] The reaction is incubated for 90 min at 25° C., before the addition of 10 mM EDTA to stop the reaction. The proportion of substrate and product (phosphorylated) peptide is analysed on a Caliper Life Sciences Lab Chip 3000, using a pressure of −1.4 psi, and upstream and downstream voltages of −3000 and −700 respectively. Product peaks are resolved before substrate peaks on the resulting chromatograms.
With CNC[C@@H](Nc1nc(C)nc2c(C(N)=O)cccc12)c1cc(F)ccc1OC [Example 47, 4-[(S)-1-(5-Fluoro-2-methoxy-phenyl)-2-methylamino-ethylamino]-2-methyl-quinazoline-8-carboxylic acid amide] the pIC50 was 7.92. Cc1nc(N[C@@H](Cc2ccccc2)CN(C)C)c2cccc(C(N)=O)c2n1 [Example 49, 4-((S)-1-Benzyl-2-dimethylamino-ethylamino)-2-methyl-quinazoline-8-carboxylic acid amide] was tested, and the pIC50 was 6.34. With CNC[C@@H](Nc1nc(C)nc2c(C(N)=O)cccc12)c1c(F)cccc1F [Example 55] the pIC50 was 8.22. CNC[C@@H](Nc1nc(C)nc2c(C(N)=O)cccc12)c1ccccc1 [Example 26, 2-Methyl-4-{[(1S)-2-(methylamino)-1-phenylethyl]amino}quinazoline-8-carboxamide] was tested, and the pIC50 was 8.19. For CNC[C@@H](Nc1nc(C)nc2c(C(N)=O)cccc12)c1cccc(Cl)c1 [Example 22, 4-{[(1S)-1-(3-Chlorophenyl)-2-(methylamino)ethyl]amino}-2-methylquinazoline-8-carboxamide], the pIC50 was 9.01. In the case of CCc1nc(N[C@H](CNC)c2cccc(F)c2Cl)c2cccc(C(N)=O)c2n1 [Example 60, (S)-4-((1-(2-chloro-3-fluorophenyl)-2-(methylamino)ethyl)amino)-2-ethylquinazoline-8-carboxamide], the pIC50 was 8.05. CNC[C@@H](Nc1nc(C)nc2c(C(N)=O)cccc12)c1ccc(F)cc1 [Example 16, 4-{[(1S)-1-(4-fluorophenyl)-2-(methylamino)ethyl]amino}-2-methylquinazoline-8-carboxamide] showed a pIC50 of 8.55. CCc1nc(N[C@H](CN2CCC2)c2ccc(F)cc2)c2cccc(C(N)=O)c2n1 [Example 36] gave a pIC50 of 7.52. Compound CNC[C@@H](Nc1nc(C)nc2c(C(N)=O)cccc12)c1cc(F)ccc1F [Example 53] has a pIC50 of 8.52. For CCc1nc(N[C@H](CNC)c2ccc(Cl)cc2)c2cccc(C(N)=O)c2n1 [Example 24, 4-{[(1S)-1-(4-Chlorophenyl)-2-(methylamino)ethyl]amino}-2-ethylquinazoline-8-carboxamide], the pIC50 was 8.85. For NC[C@@H](Nc1nc(C(F)(F)F)nc2c(C(N)=O)cccc12)c1ccccc1 [Example 51, 4-((S)-2-Amino-1-phenyl-ethylamino)-2-trifluoromethyl-quinazoline-8-carboxylic acid amide], the pIC50 was 8.10. CNC[C@@H](Nc1nc(C)nc2c(C(N)=O)cccc12)c1cc(F)c(F)cc1F [Example 56, (S)-2-methyl-4-((2-(methylamino)-1-(2,4,5-trifluorophenyl)ethyl)amino)quinazoline-8-carboxamide] was tested, and the pIC50 was 9.00. CNC[C@@H](Nc1nc(C)nc2c(C(N)=O)cccc12)c1ccc(Cl)cc1 [Example 19, 4-{[(1S)-1-(4-chlorophenyl)-2-(methylamino)ethyl]amino}-2-methylquinazoline-8-carboxamide] showed a pIC50 of 9.08. With CCc1nc(N[C@H](CNC)c2ccccc2)c2cccc(C(N)=O)c2n1 [Example 23, 2-Ethyl-4-{[(1S)-2-(methylamino)-1-phenylethyl]amino}quinazoline-8-carboxamide] the pIC50 was 7.96. CNC[C@@H](Nc1nc(C)nc2c(C(N)=O)cccc12)c1ccc(C(F)(F)F)cc1 [Example 48, 2-Methyl-4-[(S)-2-methylamino-1-(4-trifluoromethyl-phenyl)-ethylamino]-quinazoline-8-carboxylic acid amide] gave a pIC50 of 9.00. With CNC[C@@H](Nc1nc(C(C)C)nc2c(C(N)=O)cccc12)c1ccc(Cl)cc1 [Example 18, 4-{[(1S)-1-(4-chlorophenyl)-2-(methylamino)ethyl]amino}-2-isopropylquinazoline-8-carboxamide] the pIC50 was 7.64. In the case of CNC[C@@H](Nc1nc(C)nc2c(C(N)=O)cccc12)c1cccc(F)c1 [Example 17, 4-{[(1S)-1-(3-fluorophenyl)-2-(methylamino)ethyl]amino}-2-methylquinazoline-8-carboxamide], the pIC50 was 6.86. CNC[C@@H](Nc1nc(C)nc2c(C(N)=O)cccc12)c1ccc(F)cc1F [Example 54] gave a pIC50 of 8.15. Cc1nc(N[C@H](CN2CCC2)c2ccc(F)cc2)c2cccc(C(N)=O)c2n1 [Example 33] showed a pIC50 of 7.36. CCc1nc(N[C@H](CN2CCC2)c2cccc(F)c2)c2cccc(C(N)=O)c2n1 [Example 28] was tested, and the pIC50 was 7.73. Compound CNC[C@@H](Nc1nc(C(F)(F)F)nc2c(C(N)=O)cccc12)c1cccc(F)c1 [Example 27, 4-{[(1S)-1-(3-Fluorophenyl)-2-(methylamino)ethyl]amino}-2-(trifluoromethyl)-quinazoline-8-carboxamide] has a pIC50 of 8.37. In the case of CNC[C@@H](Nc1nc(C)nc2c(C(N)=O)cccc12)c1ccc(OC(F)(F)F)c(Cl)c1 [Example 52], the pIC50 was 9.00. For CNC[C@@H](Nc1nc(C)nc2c(C(N)=O)cccc12)c1ccc(F)cc1C(F)(F)F [Example 50, 4-[(1S)-1-[4-fluoro-2-(trifluoromethyl)phenyl]-2-(methylamino)ethyl]amino-2-methylquinazoline-8-carboxamide], the pIC50 was 6.59. Compound CCc1nc(N[C@H](CNC)c2cccc(F)c2)c2cccc(C(N)=O)c2n1 [Example 20, 2-Ethyl-4-{[(1S)-1-(3-fluorophenyl)-2-(methylamino)ethyl]amino}quinazoline-8-carboxamide] has a pIC50 of 8.71. Work on CCc1nc(N[C@H](CN2CCC2)c2ccc(Cl)cc2)c2cccc(C(N)=O)c2n1 [Example 32] yielded a pIC50 of 8.26. CNC[C@@H](Nc1nc(C)nc2c(C(N)=O)cccc12)c1ccc(Cl)c(Cl)c1 [Example 61] gave a pIC50 of 6.48. With CCc1nc(N[C@H](CN2CCC2)c2ccccc2)c2cccc(C(N)=O)c2n1 [Example 30] the pIC50 was 7.47. Cc1nc(N[C@H](CN2CCC2)c2ccccc2)c2cccc(C(N)=O)c2n1 [Example 29] showed a pIC50 of 8.23. CCc1nc(N[C@H](CNC)c2cccc(Cl)c2)c2cccc(C(N)=O)c2n1 [Example 21, 4-{[(1S)-1-(3-Chlorophenyl)-2-(methylamino)ethyl]amino}-2-ethylquinazoline-8-carboxamide] showed a pIC50 of 9.06. With Cc1nc(N[C@H](CN2CCC2)c2cccc(F)c2)c2cccc(C(N)=O)c2n1 [Example 34] the pIC50 was 8.15. With Cc1nc(N[C@H](CN2CCC2)c2ccc(Cl)cc2)c2cccc(C(N)=O)c2n1 [Example 31] the pIC50 was 8.59.
